Patent US6458764B1, “GRF analogs with increased biological potency” (Theratechnologies Inc., priority 1995, dated 2002)
Where no end group is shown, it is not given here. The star is where a group is joined. Hexanoyl = CCCCCC(=O)*

Tests used:
serum IGF-I [1] = test: Repeated S.C. administrations of GRF analogs, serum IGF-I levels in pigs (Example I, Experiments 1-3; radioimmunoassay); format: in vivo, pigs (Landrace x Yorkshire); settings: for serum IGF-I, Day 1 (pretreatment): pretreatment baseline; for increase in IGF-I levels: P<0.05
Procedure: The objective of these experiments was to assess the potential of the GRF analogs as anabolic agents.
Therefore, in order to investigate the anabolic potency of the fatty acid-GRF analogs, their ability to increase IGF-I levels following repeated S.C. administrations in pig was evaluated.
26 Landrace x Yorkshire castrated male pigs (40-45 kg BW) were randomly distributed into 4 experimental groups:
Each animal was injected BID (twice a day) subcutaneously for 4 consecutive days. One blood sample was collected each morning prior to the first injection of the day, and the day after the last injection, for IGF-I measurement.
40 Landrace x Yorkshire castrated male pigs (40-45 kg BW) were randomly distributed into 5 experimental groups:
Each animal was injected BID (twice a day) subcutaneously for 5 consecutive days. One blood sample was collected each morning prior to the first injection of the day, and the day after the last injection, for IGF-I measurement.
48 Landrace x Yorkshire castrated male pigs (40-45 kg BW) were randomly distributed into 6 experimental groups:
The selected doses were 30 μg/kg for hGRF(1-44)NH2 analogs and 20 μg/kg for hGRF(1-29)NH2 analogs, which give identical doses on a molar basis. Each animal was injected BID (twice a day) subcutaneously for 5 consecutive days. One blood sample was collected each morning prior to the first injection of the day, and the day after the last injection, for IGF-I measurements.
IGF-I levels were measured in pig serum by double antibody radioimmunoassay after formic acid-acetone extraction, as previously described (Abribat T. et al., 1993, J. Endocrinol., 39:583-589). The extraction prior to radioimmunoassay is a necessary step to remove endogenous IGF-binding proteins.
In both experiments, the IGF-I data were analyzed by a two way repeated measure analysis of variance, with day and treatment (GRF analog) as sources of variation. Multiple comparison procedures were there run (Student-Newman Keuls method). A P<0.05 was considered as statistically significant.

serum IGF-I [2] = test: Comparative effects of GRF analogs on IGF-I levels in pigs (Example II, D-IGF-I, FIG. 1); format: in vivo, pigs (Landrace x Yorkshire); settings: 20 μg/kg 2×/day S.C., days 1 to 5, n=8 pigs per group
Procedure: This was a 5-day treatment, twice a day S.C. administration of one single dose of each test article vs saline. This experiment was conducted to compare the efficacy of (Aminohexanoyl)0 hGRF (1-29) NH2, (Hexylformiate)0 hGRF (1-29) NH2, (Hexenoyl trans-2)0 hGRF (1-29) NH2, (Hexenoyl trans-3)0 hGRF (1-29) NH2 and (Muconoyl)0 hGRF (1-29) NH2 to that of(Hexanoyl)0 hGRF (1-29) NH2.
ADMINISTRATION: Two daily subcutaneous injections.
TEST SYSTEM: Landrace x Yorkshire pigs.
ANIMAL DESCRIPTION: Fifty six (56) growing barrows pigs weighing 35 kg at the time of purchase.
DESIGN: Fifty six (56) pigs were randomly distributed into 7 experimental groups (n=8 pigs per group). Each group received two daily S.C. administration of the following treatments (volume: 3 ml, S.C. injection).
Treatments were administered from day 1 to 5. Immediately before the injections, one blood sample were collected from each animal, and additional blood samples were collected on day 6.
Blood samples were allowed to clot, serum was harvested by centrifugation and submitted to IGF-I assays.
Results are shown in FIG. 1 as D-IGF-I, which is defined as the increase in IGF-I levels from day 1 (pretreatment levels) to day 6 (after 5 days of GRFs administrations).

[3] = Experiment 3, 20 μg/kg BID SC × 5 days, mean of 8
[4] = Experiment 3, 30 μg/kg BID SC × 5 days, mean of 8
[5] = Experiment 1, 20 μg/kg BID SC × 4 days, mean of 6 to 7

[hexanoyl^0, 30]hGRF(1-29)NH2 (Hexanoyl-YADAIFTNSYRKVLGQLSARKLLQDIMSR-NH2; also: hexanoyl at position 30; UniProt P01286 32-60, looked up, fragment) [[hexanoyl^0,30] hGRF(1-29)NH2]
serum IGF-I, Day 2 (serum IGF-I [1]; [3]): 212 ng/mL | serum IGF-I, Day 3 (serum IGF-I [1]; [3]): 253 ng/mL | serum IGF-I, Day 4 (serum IGF-I [1]; [3]): 271 ng/mL | serum IGF-I, Day 5 (serum IGF-I [1]; [3]): 277 ng/mL | serum IGF-I, Day 6 (serum IGF-I [1]; [3]): 294 ng/mL | serum IGF-I, Day 1 (pretreatment) (serum IGF-I [1]; [3]): 205 ng/mL | increase in IGF-I levels (serum IGF-I [1]; Experiment 3, 20 μg/kg BID SC, day 4): 32% | increase in IGF-I levels (serum IGF-I [1]; Experiment 3, 20 μg/kg BID SC, day 5): 35% | increase in IGF-I levels (serum IGF-I [1]; Experiment 3, 20 μg/kg BID SC, day 6): 43%

[hexanoyl^30]hGRF(1-29)NH2 (YADAIFTNSYRKVLGQLSARKLLQDIMSR-NH2; also: hexanoyl at position 30; UniProt P01286 32-60, looked up, fragment) [[hexanoyl^30] hGRF(1-29)NH2, hexanoyl function anchored at the C-terminal region of hGRF(1-29)NH2]
serum IGF-I, Day 2 (serum IGF-I [1]; [3]): 270 ng/mL | serum IGF-I, Day 3 (serum IGF-I [1]; [3]): 287 ng/mL | serum IGF-I, Day 4 (serum IGF-I [1]; [3]): 278 ng/mL | serum IGF-I, Day 5 (serum IGF-I [1]; [3]): 276 ng/mL | serum IGF-I, Day 6 (serum IGF-I [1]; [3]): 327 ng/mL | serum IGF-I, Day 1 (pretreatment) (serum IGF-I [1]; [3]): 297 ng/mL

[hexanoyl^0]hGRF(1-44)NH2 (Hexanoyl-YADAIFTNSYRKVLGQLSARKLLQDIMSRQQGESNQERGARARL-NH2; UniProt P01286 32-75, looked up) [[hexanoyl^0] hGRF(1-44)NH2]
serum IGF-I, Day 2 (serum IGF-I [1]; [4]): 290 ng/mL | serum IGF-I, Day 3 (serum IGF-I [1]; [4]): 340 ng/mL | serum IGF-I, Day 4 (serum IGF-I [1]; [4]): 372 ng/mL | serum IGF-I, Day 5 (serum IGF-I [1]; [4]): 361 ng/mL | serum IGF-I, Day 6 (serum IGF-I [1]; [4]): 388 ng/mL | serum IGF-I, Day 1 (pretreatment) (serum IGF-I [1]; [4]): 241 ng/mL | increase in IGF-I levels (serum IGF-I [1]; Experiment 3, 30 μg/kg BID SC, day 3): 41% | increase in IGF-I levels (serum IGF-I [1]; Experiment 3, 30 μg/kg BID SC, day 4): 54% | increase in IGF-I levels (serum IGF-I [1]; Experiment 3, 30 μg/kg BID SC, day 5): 50% | increase in IGF-I levels (serum IGF-I [1]; Experiment 3, 30 μg/kg BID SC, day 6): 61%

(Muconoyl)0 hGRF (1-29) NH2 (muconoyl-YADAIFTNSYRKVLGQLSARKLLQDIMSR-NH2; UniProt P01286 32-60, looked up, fragment) [muconoyl-hGRF(1-29)NH2]
D-IGF-I: increase in IGF-I levels from day 1 (pretreatment) to day 6 (serum IGF-I [2]): did not

(Hexylformiate)0 hGRF (1-29) NH2 (hexylformiate-YADAIFTNSYRKVLGQLSARKLLQDIMSR-NH2; UniProt P01286 32-60, looked up, fragment) [hexylformiate-hGRF(1-29)NH2]
D-IGF-I: increase in IGF-I levels from day 1 (pretreatment) to day 6 (serum IGF-I [2]): significantly increased IGF-I levels

(Aminohexanoyl)0 hGRF (1-29) NH2 (aminohexanoyl-YADAIFTNSYRKVLGQLSARKLLQDIMSR-NH2; UniProt P01286 32-60, looked up, fragment) [aminohexanoyl-hGRF(1-29)NH2]
D-IGF-I: increase in IGF-I levels from day 1 (pretreatment) to day 6 (serum IGF-I [2]): did not

[octanoyl^0] hGRF(1-29)NH2 (YADAIFTNSYRKVLGQLSARKLLQDIMSR; HELM PEPTIDE1{[CCCCCCCC(=O)[*:2]].Y.A.D.A.I.F.T.N.S.Y.R.K.V.L.G.Q.L.S.A.R.K.L.L.Q.D.I.M.S.R.[am]}$$$$V2.0; SMILES CCCCCCCC(=O)N[C@@H](Cc1ccc(O)cc1)C(=O)N[C@@H](C)C(=O)N[C@@H](CC(=O)O)C(=O)N[C@@H](C)C(=O)N[C@H](C(=O)N[C@@H](Cc1ccccc1)C(=O)N[C@H](C(=O)N[C@@H](CC(N)=O)C(=O)N[C@@H](CO)C(=O)N[C@@H](Cc1ccc(O)cc1)C(=O)N[C@@H](CCCNC(=N)N)C(=O)N[C@@H](CCCCN)C(=O)N[C@H](C(=O)N[C@@H](CC(C)C)C(=O)NCC(=O)N[C@@H](CCC(N)=O)C(=O)N[C@@H](CC(C)C)C(=O)N[C@@H](CO)C(=O)N[C@@H](C)C(=O)N[C@@H](CCCNC(=N)N)C(=O)N[C@@H](CCCCN)C(=O)N[C@@H](CC(C)C)C(=O)N[C@@H](CC(C)C)C(=O)N[C@@H](CCC(N)=O)C(=O)N[C@@H](CC(=O)O)C(=O)N[C@H](C(=O)N[C@@H](CCSC)C(=O)N[C@@H](CO)C(=O)N[C@@H](CCCNC(=N)N)C(N)=O)[C@@H](C)CC)C(C)C)[C@@H](C)O)[C@@H](C)CC; UniProt P01286 32-60, looked up, fragment)
serum IGF-I, Day 2 (serum IGF-I [1]; [5]): 287 ng/mL | serum IGF-I, Day 3 (serum IGF-I [1]; [5]): 301 ng/mL | serum IGF-I, Day 4 (serum IGF-I [1]; [5]): 301 ng/mL | serum IGF-I, Day 5 (serum IGF-I [1]; [5]): 318 ng/mL | serum IGF-I, Day 1 (pretreatment) (serum IGF-I [1]; [5]): 316 ng/mL

[butyryl^0] hGRF(1-29)NH2 (YADAIFTNSYRKVLGQLSARKLLQDIMSR; HELM PEPTIDE1{[CCCC(=O)[*:2]].Y.A.D.A.I.F.T.N.S.Y.R.K.V.L.G.Q.L.S.A.R.K.L.L.Q.D.I.M.S.R.[am]}$$$$V2.0; SMILES CCCC(=O)N[C@@H](Cc1ccc(O)cc1)C(=O)N[C@@H](C)C(=O)N[C@@H](CC(=O)O)C(=O)N[C@@H](C)C(=O)N[C@H](C(=O)N[C@@H](Cc1ccccc1)C(=O)N[C@H](C(=O)N[C@@H](CC(N)=O)C(=O)N[C@@H](CO)C(=O)N[C@@H](Cc1ccc(O)cc1)C(=O)N[C@@H](CCCNC(=N)N)C(=O)N[C@@H](CCCCN)C(=O)N[C@H](C(=O)N[C@@H](CC(C)C)C(=O)NCC(=O)N[C@@H](CCC(N)=O)C(=O)N[C@@H](CC(C)C)C(=O)N[C@@H](CO)C(=O)N[C@@H](C)C(=O)N[C@@H](CCCNC(=N)N)C(=O)N[C@@H](CCCCN)C(=O)N[C@@H](CC(C)C)C(=O)N[C@@H](CC(C)C)C(=O)N[C@@H](CCC(N)=O)C(=O)N[C@@H](CC(=O)O)C(=O)N[C@H](C(=O)N[C@@H](CCSC)C(=O)N[C@@H](CO)C(=O)N[C@@H](CCCNC(=N)N)C(N)=O)[C@@H](C)CC)C(C)C)[C@@H](C)O)[C@@H](C)CC; UniProt P01286 32-60, looked up, fragment)
serum IGF-I, Day 2 (serum IGF-I [1]; [5]): 281 ng/mL | serum IGF-I, Day 3 (serum IGF-I [1]; [5]): 302 ng/mL | serum IGF-I, Day 4 (serum IGF-I [1]; [5]): 289 ng/mL | serum IGF-I, Day 5 (serum IGF-I [1]; [5]): 293 ng/mL | serum IGF-I, Day 1 (pretreatment) (serum IGF-I [1]; [5]): 278 ng/mL

(Hexenoyl trans-2)0 hGRF (1-29) NH2 ({trans‑2‑hexenoyl}-YADAIFTNSYRKVLGQLSARKLLQDIMSR-NH2; UniProt P01286 32-60, looked up, fragment) [hexenoyl trans2-hGRF(1-29)NH2]
D-IGF-I: increase in IGF-I levels from day 1 (pretreatment) to day 6 (serum IGF-I [2]): significantly increased IGF-I levels
